US9040528B2, “Chemical compounds 542” (AstraZeneca AB, priority 2008, dated 2015)
Where two headings read alike, the source gives them in different places.

Target: Escherichia coli DNA gyrase A/B tetramer (Escherichia coli (strain K12), UniProt P0AES4+P0AES6)
Assay: DNA gyrase supercoiling activity fluorescence polarisation assay
Assay type: biochemical
Method: DNA Gyrase Supercoiling Activity Fluorescence Polarisation Assay
The supercoiling reactions may be quenched by the addition of 10 microliters/well of 40 nM oligodeoxynucleotide probe in 3× triplex-forming buffer consisting of 150 mM NaCl, and 150 mM sodium acetate at pH 3.5. The oligodeoxynucleotide probe may be 5′-BODIPY-FL-labeled […]. After 60 minutes, the fluorescence anisotropy of the BODIPY-FL may be measured in a Tecan Ultra plate reader, using 485 nm excitation and 535 nm emission filters equipped with polarizers. The IC50 may be determined by nonlinear regression using two control reactions. The first contains no test compound but 0.8% DMSO (100% activity) while the second control reaction contains 5 μM Ciprofloxacin and 0.8% DMSO (0% activity).

[1] = 5 nM enzyme, relaxed plasmid, 0.3 mM ATP, ambient temperature, read-out: E. coli DNA gyrase supercoiling IC50

| Compound | IC50 [1] | IC50 |
| --- | --- | --- |
| C[C@@H]1CN2c3c(cc4c(C(=O)N5CC(F)(F)C5)noc4c3F)CC3(C(=O)NC(=O)NC3=O)[C@H]2[C@H](C)O1 (relative stereo) [Example 95, (2R,4S,4aS)-rel-8-(3,3-difluoroazetidine-1-carbonyl)-11-fluoro-2,4-dimethyl-2,4,4a,6-tetrahydro-1H,1′H-spiro[isoxazolo[4,5-g][1,4]oxazino[4,3-a]quinoline-5,5′-pyrimidine]-2′,4′,6′(3′H)-trione] | 300 nM |  |
| C[C@@H]1CN2c3c(cc4c(-n5cc(CO)cn5)noc4c3F)CC3(C(=O)NC(=O)NC3=O)[C@H]2[C@H](C)O1 (relative stereo) [Example 190, (2R,4S,4aS)-rel-11-fluoro-8-[4-(hydroxymethyl)-1H-pyrazol-1-yl]-2,4-dimethyl-1,2,4,4a-tetrahydro-2′H,6H-spiro[1,4-oxazino[4,3-a][1,2]oxazolo[4,5-g]quinoline-5,5′-pyrimidine]-2′,4′,6′(1′H,3′H)-trione] | 2100 nM |  |
| C[C@@H]1CN2c3c(nc4c(-c5nccn5C)noc4c3Cl)CC3(C(=O)NC(=O)NC3=O)[C@H]2[C@H](C)O1 (relative stereo) [Example 114, (2R,4S,4aS)-rel-11-Chloro-2,4-dimethyl-8-(1-methyl-1H-imidazol-2-yl)-2,4,4a,6-tetrahydro-1H,1′H-spiro[isoxazolo[4,5-g][1,4]oxazino[4,3-a][1,5]naphthyridine-5,5′-pyrimidine]-2′,4′,6′(3′H)-trione] | 5200 nM |  |
| C[C@@H]1CN2c3c(cc4c(C(N)=O)noc4c3F)CC3(C(=O)NC(=O)NC3=O)[C@H]2[C@H](C)O1 (relative stereo) [Example 142, (2R,4S,4aS)-rel-11-fluoro-2,4-dimethyl-2′,4′,6′-trioxo-2,2′,3′,4,4a,4′,6,6′-octahydro-^1H,1′H-spiro[isoxazolo[4,5-g][1,4]oxazino[4,3-a]quinoline-5,5′-pyrimidine]-8-carboxamide] |  | 300 nM |
| C[C@@H]1CN2c3c(cc4c(C(F)(F)F)noc4c3F)CC3(C(=O)NC(=O)NC3=O)[C@H]2[C@H](C)O1 [Example 92(b), (2R,4S,4aS)-11-fluoro-2,4-dimethyl-8-(trifluoromethyl)-2,4,4a,6-tetrahydro-1H,1′H-spiro[isoxazolo[4,5-g][1,4]oxazino[4,3-a]quinoline-5,5′-pyrimidine]-2′,4′,6′(3′H)-trione] | 600 nM |  |
| C[C@H]1CN2c3c(cc4c(-c5ncccn5)noc4c3F)CC3(C(=O)NC(=O)NC3=O)[C@@H]2[C@@H](C)O1 [Example 148(a), (2S,4R,4aR)-11-fluoro-2,4-dimethyl-8-(pyrimidin-2-yl)-2,4,4a,6-tetrahydro-1H,1′H-spiro[isoxazolo[4,5-g][1,4]oxazino[4,3-a]quinoline-5,5′-pyrimidine]-2′,4′,6′(3′H)-trione] | 83000 nM |  |
| C[C@@H]1CN2c3c(cc4c(-n5cc(C#N)c(N)n5)noc4c3F)CC3(C(=O)NC(=O)NC3=O)[C@H]2[C@H](C)O1 (relative stereo) [Example 33, 3-amino-1-[(2R,4S,4aS)-rel-11-fluoro-2,4-dimethyl-2′,4′,6′-trioxo-1,1′,2,3′,4,4′,4a,6′-octahydro-2′H,6H-spiro[1,4-oxazino[4,3-a][1,2]oxazolo[4,5-g]quinoline-5,5′-pyrimidin]-8-yl]-1H-pyrazole-4-carbonitrile] | 1000 nM |  |
| C[C@@H]1CN2c3c(cc4c(-c5ccncc5)noc4c3Cl)CC3(C(=O)NC(=O)NC3=O)[C@H]2[C@H](C)O1 (relative stereo) [Example 46, (2R,4S,4aS)-rel-11-chloro-2,4-dimethyl-8-(pyridin-4-yl)-1,2,4,4a-tetrahydro-2′H,6H-spiro[1,4-oxazino[4,3-a][1,2]oxazolo[4,5-g]quinoline-5,5′-pyrimidine]-2′,4′,6′(1′H,3′H)-trione] | 1000 nM |  |
| CCOC(=O)c1noc2c(F)c3c(cc12)CC1(C(=O)NC(=O)NC1=O)[C@H]1[C@H](C)O[C@H](C)CN31 (relative stereo) [Example 134, (2R,4S,4aS)-rel-ethyl 11-fluoro-2,4-dimethyl-2′,4′,6′-trioxo-2,2′,3′,4,4a,4′,6,6′-octahydro-1H,1′H-spiro[isoxazolo[4,5-g][1,4]oxazino[4,3-a]quinoline-5,5′-pyrimidine]-8-carboxylate] | 1000 nM |  |
| C[C@@H]1CN2c3c(nc4c(-c5cnc(Br)s5)noc4c3Cl)CC3(C(=O)NC(=O)NC3=O)[C@H]2[C@H](C)O1 (relative stereo) [Example 119, (2R,4S,4aS)-rel-11-chloro-2,4-dimethyl-8-(2-bromothiazol-5-yl)-2,4,4a,6-tetrahydro-1H,1′H-spiro[isoxazolo[4,5-g][1,4]oxazino[4,3-a][1,5]naphthyridine-5,5′-pyrimidine]-2′,4′,6′(3′H)-trione] | 3100 nM |  |
| C[C@@H]1CN2c3c(cc4c(-c5scnc5C(=O)N5CCOCC5)noc4c3F)CC3(C(=O)NC(=O)NC3=O)[C@H]2[C@H](C)O1 (relative stereo) [Example 85, (2R,4S,4aS)-rel-11-fluoro-2,4-dimethyl-8-[4-(morpholin-4-ylcarbonyl)-1,3-thiazol-5-yl]-1,2,4,4a-tetrahydro-2′H,6H-spiro[1,4-oxazino[4,3-a][1,2]oxazolo[4,5-g]quinoline-5,5′-pyrimidine]-2′,4′,6′(1′H,3′H)-trione] | 17000 nM |  |
| C[C@@H]1CN2c3c(cc4c(C(=O)NCc5ccncc5)noc4c3F)CC3(C(=O)NC(=O)NC3=O)[C@H]2[C@H](C)O1 (relative stereo) [Example 155, (2R,4S,4aS)-rel-11-fluoro-2,4-dimethyl-2′,4′,6′-trioxo-N-(pyridin-4-ylmethyl)-2,2′,3′,4,4a,4′,6,6′-octahydro-1H,1′H-spiro[isoxazolo[4,5-g][1,4]oxazino[4,3-a]quinoline-5,5′-pyrimidine]-8-carboxamide] | 1200 nM |  |
| C[C@@H]1CN2c3c(nc4c(-c5cccnc5)noc4c3Cl)CC3(C(=O)NC(=O)NC3=O)[C@H]2[C@H](C)O1 (relative stereo) [Example 109, (2R,4S,4aS)-rel-11-chloro-2,4-dimethyl-8-(pyridyin-3-yl)-2,4,4a,6-tetrahydro-1H,1′H-spiro[isoxazolo[4,5-g][1,4]oxazino[4,3-a][1,5]naphthyridine-5,5′-pyrimidine]-2′,4′,6′(3′H)-trione] | 500 nM |  |
| C[C@@H]1CN2c3c(cc4c(-c5nccnc5Cl)noc4c3F)CC3(C(=O)NC(=O)NC3=O)[C@H]2[C@H](C)O1 (relative stereo) [Example 78, (2R,4S,4aS)-rel-8-(3-chloropyrazin-2-yl)-11-fluoro-2,4-dimethyl-2,4,4a,6-tetrahydro-1H,1′H-spiro[isoxazolo[4,5-g][1,4]oxazino[4,3-a]quinoline-5,5′-pyrimidine]-2′,4′,6′(3′H)-trione] | 800 nM |  |
| C[C@@H]1CN2c3c(cc4c(N5CCOCC5)noc4c3F)CC3(C(=O)NC(=O)NC3=O)[C@H]2[C@H](C)O1 (relative stereo) [Example 22, (2R,4S,4aS)-rel-11-fluoro-2,4-dimethyl-8-(morpholin-4-yl)-1,2,4,4a-tetrahydro-2′H,6H-spiro[isoxazolo[4,5-g][1,4]oxazino[4,3-a]quinoline-5,5′-pyrimidine]-2′,4′,6′(1′H,3′H)-trione] | 2600 nM |  |
| CCN(C)C(=O)c1noc2c(F)c3c(cc12)CC1(C(=O)NC(=O)NC1=O)[C@H]1[C@H](C)O[C@H](C)CN31 (relative stereo) [Example 139, (2R,4S,4aS)-rel-N-ethyl-11-fluoro-N,2,4-trimethyl-2′,4′,6′-trioxo-2,2′,3′,4,4a,4′,6,6′-octahydro-1H,1′H-spiro[isoxazolo[4,5-g][1,4]oxazino[4,3-a]quinoline-5,5′-pyrimidine]-8-carboxamide] | 7600 nM |  |
| C[C@@H]1CN2c3c(cc4c(-n5cncn5)noc4c3F)CC3(C(=O)NC(=O)NC3=O)[C@H]2[C@H](C)O1 (racemic) [Example 53, (2R,4S,4 aS)-rel-11-fluoro-2,4-dimethyl-8-(1H-1,2,4-triazol-1-yl)-1,2,4,4a-tetrahydro-2′H,6H-spiro[1,4-oxazino[4,3-a][1,2]oxazolo[4,5-g]quinoline-5,5′-pyrimidine]-2′,4′,6′(1′H,3′H)-trione] |  | 2800 nM |
| C[C@@H]1CN2c3c(cc4c(-n5cc(C(=O)N(C)C)cn5)noc4c3F)CC3(C(=O)NC(=O)NC3=O)[C@H]2[C@H](C)O1 (relative stereo) [Example 187, 1-[(2R,4S,4aS)-rel-11-fluoro-2,4-dimethyl-2′,4′,6′-trioxo-1,1′,2,3′,4,4′,4a,6′-octahydro-2′H,6H-spiro[1,4-oxazino[4,3-a][1,2]oxazolo[4,5-g]quinoline-5,5′-pyrimidin]-8-yl]-N,N-dimethyl-1H-pyrazole-4-carboxamide] | 3300 nM |  |
| C[C@@H]1CN2c3c(cc4c(N(C)Cc5ccccc5)noc4c3F)CC3(C(=O)NC(=O)NC3=O)[C@H]2[C@H](C)O1 (relative stereo) [Example 32, (2R,4S,4aS)-rel-8-[benzyl(methyl)amino]-11-fluoro-2,4-dimethyl-1,2,4,4a-tetrahydro-2′H,6H-spiro[1,4-oxazino[4,3-a][1,2]oxazolo[4,5-g]quinoline-5,5′-pyrimidine]-2′,4′,6′(1′H,3′H)-trione] | 600 nM |  |
| CC(C)NC(=O)c1noc2c(Cl)c3c(nc12)CC1(C(=O)NC(=O)NC1=O)[C@H]1[C@H](C)O[C@H](C)CN31 (relative stereo) [Example 127, (2R,4S,4aS)-rel-Chloro-N-isopropyl-2,4-dimethyl-2′,4′,6′-trioxo-2,2′,3′,4,4a,4′,6,6′-octahydro-1H,1′H-spiro[isoxazolo[4,5-g][1,4]oxazino[4,3-a][1,5]naphthyridine-5,5′-pyrimidine]-8-carboxamide] |  | 19000 nM |
